According to patent publication US20230219986A1, “NOVEL AMINOPYRIMIDINE EGFR INHIBITOR” (QILU PHARMACEUTICAL CO., LTD., priority 2020, published 2023):
Read-outs that look alike come from different tables or passages of the source.

Key:
[1] = target: Ba/F3 L858R/T790M/C797S EGFR triple mutant cell line (Homo sapiens, UniProt P00533, T790M/C797S/L858R, cells depend on it); assay: Cell proliferation inhibition experiment (CellTiter-Glo), Ba/F3 L858R/T790M/C797S; type: cell-based; conditions: 72 hours, Cell Titer-Glo, read-out: Ba/F3 (L858R/T790M/C797S) IC50
Chain of Ba/F3 L858R/T790M/C797S EGFR triple mutant cell line (P00533 whole entry T790M/C797S/L858R): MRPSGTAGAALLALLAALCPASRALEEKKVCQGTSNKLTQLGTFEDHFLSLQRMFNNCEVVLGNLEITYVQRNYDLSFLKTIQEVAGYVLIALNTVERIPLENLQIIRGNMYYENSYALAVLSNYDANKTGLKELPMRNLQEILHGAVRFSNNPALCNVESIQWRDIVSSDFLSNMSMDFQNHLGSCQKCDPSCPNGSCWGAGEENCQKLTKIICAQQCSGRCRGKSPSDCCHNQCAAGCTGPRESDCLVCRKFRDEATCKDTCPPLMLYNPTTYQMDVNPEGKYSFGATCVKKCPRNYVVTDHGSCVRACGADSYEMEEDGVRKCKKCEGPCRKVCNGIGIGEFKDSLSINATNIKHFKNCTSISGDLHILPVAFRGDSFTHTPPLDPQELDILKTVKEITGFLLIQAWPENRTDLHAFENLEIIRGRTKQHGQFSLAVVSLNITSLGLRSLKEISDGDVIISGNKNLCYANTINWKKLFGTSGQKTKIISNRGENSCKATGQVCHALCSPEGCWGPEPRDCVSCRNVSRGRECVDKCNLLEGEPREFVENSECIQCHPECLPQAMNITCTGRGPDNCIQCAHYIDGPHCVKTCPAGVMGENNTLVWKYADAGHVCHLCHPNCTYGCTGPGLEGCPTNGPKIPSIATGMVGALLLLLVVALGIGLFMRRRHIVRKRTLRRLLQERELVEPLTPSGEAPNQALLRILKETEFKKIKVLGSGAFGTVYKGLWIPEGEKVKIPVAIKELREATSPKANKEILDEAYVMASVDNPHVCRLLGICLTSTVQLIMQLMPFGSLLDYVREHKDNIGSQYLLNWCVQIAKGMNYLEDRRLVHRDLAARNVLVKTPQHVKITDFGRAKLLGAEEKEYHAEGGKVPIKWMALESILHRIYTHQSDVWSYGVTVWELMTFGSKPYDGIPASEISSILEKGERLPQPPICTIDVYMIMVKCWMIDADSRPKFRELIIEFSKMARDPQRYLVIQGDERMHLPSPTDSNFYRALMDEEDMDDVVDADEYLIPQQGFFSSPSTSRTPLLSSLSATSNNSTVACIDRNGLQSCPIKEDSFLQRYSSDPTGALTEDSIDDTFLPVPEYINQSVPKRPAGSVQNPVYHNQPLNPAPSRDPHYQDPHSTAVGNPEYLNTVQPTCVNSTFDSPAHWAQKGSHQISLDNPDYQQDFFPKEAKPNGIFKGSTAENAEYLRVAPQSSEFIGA
Experimental: (§1) 3) 30 nL of gradient diluted compound was transferred into the 384-well experimental plate using Echo 550 (Labcyte) at a DMSO final concentration of 0.1%, and the culture plate was incubated in a cell incubator for 72 hours (37° C., 5% CO2).
(§2) 4) 30 μL of Cell Titer-Glo reagent was added to each well and left for 30 minutes at room temperature and protected from light.
(§3) 5) Envision microplate reader (PerkinElmer) detected chemiluminescence signals.
(§4) 6) GraphPad Prism 8 software was used for data analysis to obtain the IC50 of the compounds of the present disclosure and the positive control.

[2] = system: EGFR wild-type cell line A431; assay: Cell proliferation inhibition experiment (CellTiter-Glo), A431; type: cell-based; conditions: A431 cells, Cell Titer-Glo, read-out: A431 EGFR WT IC50
Experimental: A431 cells, purchased from ATCC.
1) A431 cells were inoculated in a 384-well culture plate at a density of 800 cells per well, 30 μL per well, placed in a cell incubator, and cultured for 24 hours (37° C., 5% CO2).
as §1, §2, §3, §4

[3] = target: Ba/F3 De119/T790M/C797S EGFR triple mutant cell line (Homo sapiens, UniProt P00533, T790M/C797S, cells depend on it, form not given); assay: Cell proliferation inhibition experiment (CellTiter-Glo), Ba/F3 De119/T790M/C797S; type: cell-based; conditions: Ba/F3 Del19/T790M/C797S EGFR triple mutant cells, 72 hours, Cell Titer-Glo; read-out: Ba/F3 (Del19/T790M/C797S) IC50
Chain of Ba/F3 De119/T790M/C797S EGFR triple mutant cell line (P00533 with tags, fused parts or gaps DEL746-750/T790M/C797S, form open): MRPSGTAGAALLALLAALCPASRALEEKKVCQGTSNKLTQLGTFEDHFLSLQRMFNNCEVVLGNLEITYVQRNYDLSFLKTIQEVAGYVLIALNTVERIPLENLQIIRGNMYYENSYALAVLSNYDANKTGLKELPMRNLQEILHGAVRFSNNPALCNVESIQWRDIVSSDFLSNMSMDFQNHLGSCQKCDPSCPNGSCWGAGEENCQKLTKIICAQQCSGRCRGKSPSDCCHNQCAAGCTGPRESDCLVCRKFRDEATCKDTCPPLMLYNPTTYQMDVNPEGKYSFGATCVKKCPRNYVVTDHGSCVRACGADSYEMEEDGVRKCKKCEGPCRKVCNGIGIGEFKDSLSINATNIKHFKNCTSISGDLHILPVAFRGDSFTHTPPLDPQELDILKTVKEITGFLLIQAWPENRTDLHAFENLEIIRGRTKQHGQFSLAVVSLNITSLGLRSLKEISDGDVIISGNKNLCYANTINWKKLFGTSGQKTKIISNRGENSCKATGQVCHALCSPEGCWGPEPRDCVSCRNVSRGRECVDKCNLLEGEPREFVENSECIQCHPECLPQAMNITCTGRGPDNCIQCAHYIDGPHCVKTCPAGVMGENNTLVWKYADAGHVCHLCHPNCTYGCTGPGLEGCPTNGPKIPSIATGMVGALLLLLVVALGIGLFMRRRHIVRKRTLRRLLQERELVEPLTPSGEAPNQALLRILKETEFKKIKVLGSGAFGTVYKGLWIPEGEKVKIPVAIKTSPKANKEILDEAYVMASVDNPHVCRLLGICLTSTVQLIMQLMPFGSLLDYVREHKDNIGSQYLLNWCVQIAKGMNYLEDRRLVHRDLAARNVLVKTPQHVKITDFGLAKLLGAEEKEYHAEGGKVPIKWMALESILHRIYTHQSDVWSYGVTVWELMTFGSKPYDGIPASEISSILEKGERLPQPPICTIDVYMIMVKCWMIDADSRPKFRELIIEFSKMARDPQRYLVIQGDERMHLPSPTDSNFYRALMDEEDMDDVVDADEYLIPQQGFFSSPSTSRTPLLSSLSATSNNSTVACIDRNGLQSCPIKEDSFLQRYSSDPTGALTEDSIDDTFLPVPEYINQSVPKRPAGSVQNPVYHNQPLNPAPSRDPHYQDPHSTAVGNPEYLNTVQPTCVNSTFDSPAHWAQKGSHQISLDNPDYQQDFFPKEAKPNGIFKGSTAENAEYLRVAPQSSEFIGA
Experimental: as §1, §2, §3, §4

[4] = target: T1, L858R/T790M/C797S triple mutant EGFR (Homo sapiens, UniProt P00533, C797S/L858R/T790M); assay: Enzymology experiment in vitro (HTRF/FRET kinase activity), L858R/T790M/C797S triple mutant EGFR; type: biochemical; conditions: HTRF KinEASE-TK, read-out: EGFR (L858R/T790M/C797S) IC50
T1 construct: purchased Signalchem
T1 sequence (P00533 25-1210 T790M/C797S/L858R): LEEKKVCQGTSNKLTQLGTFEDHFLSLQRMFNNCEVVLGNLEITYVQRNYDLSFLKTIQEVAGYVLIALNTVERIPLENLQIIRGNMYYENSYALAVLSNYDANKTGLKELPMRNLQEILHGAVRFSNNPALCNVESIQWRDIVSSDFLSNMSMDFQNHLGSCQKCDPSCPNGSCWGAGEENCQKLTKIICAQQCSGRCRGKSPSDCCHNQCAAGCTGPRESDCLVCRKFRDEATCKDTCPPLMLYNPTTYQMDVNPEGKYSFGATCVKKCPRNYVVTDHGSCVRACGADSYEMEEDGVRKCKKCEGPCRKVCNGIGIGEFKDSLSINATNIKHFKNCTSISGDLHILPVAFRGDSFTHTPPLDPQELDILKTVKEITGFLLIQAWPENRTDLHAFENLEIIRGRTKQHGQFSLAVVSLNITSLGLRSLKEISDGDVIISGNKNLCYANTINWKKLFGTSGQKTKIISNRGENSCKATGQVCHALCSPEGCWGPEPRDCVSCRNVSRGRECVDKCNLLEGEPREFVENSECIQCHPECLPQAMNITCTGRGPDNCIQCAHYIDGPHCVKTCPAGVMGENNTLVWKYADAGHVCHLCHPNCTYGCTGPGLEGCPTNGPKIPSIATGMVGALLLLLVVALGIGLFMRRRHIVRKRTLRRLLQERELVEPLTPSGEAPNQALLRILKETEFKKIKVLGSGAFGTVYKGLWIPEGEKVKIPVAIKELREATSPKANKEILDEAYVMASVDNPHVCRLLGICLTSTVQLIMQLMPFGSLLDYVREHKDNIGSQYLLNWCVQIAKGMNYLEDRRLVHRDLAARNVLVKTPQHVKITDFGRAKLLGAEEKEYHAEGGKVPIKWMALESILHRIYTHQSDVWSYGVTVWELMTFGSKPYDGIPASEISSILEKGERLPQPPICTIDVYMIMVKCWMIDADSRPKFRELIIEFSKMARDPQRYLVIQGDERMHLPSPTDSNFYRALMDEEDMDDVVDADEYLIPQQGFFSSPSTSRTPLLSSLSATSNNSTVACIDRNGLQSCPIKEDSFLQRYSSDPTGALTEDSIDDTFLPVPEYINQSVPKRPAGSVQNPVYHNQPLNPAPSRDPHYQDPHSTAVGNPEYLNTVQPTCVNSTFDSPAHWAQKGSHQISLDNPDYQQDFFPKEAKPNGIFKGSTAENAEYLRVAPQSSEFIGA
Experimental: 1. Experimental Materials
HTRF KinEASE-TK kit detection reagent, purchased from Cisbio
1) 10 nL of gradient diluted compound was transferred into a 384-well experimental plate using Echo 550 (Labcyte).
2) 5 μL of 2×EGFR enzyme solution was added to the 384-well experimental plate and incubated at room temperature for 10 minutes.
3) 5 μL of 2× substrate solution containing polypeptide and ATP was added to the 384-well experimental plate and incubated at room temperature for 40 minutes.
4) 10 μL of detection solution containing EDTA, XL665-labeled streptavidin and Eu^3+-labeled antibody was added thereto and incubated at room temperature for 1 hour.

| SMILES | GI50 [1] [nM] | IC50 ([2]; Homo sapiens, A-431, 72 hours) [nM] | GI50 [3] [nM] | IC50 ([2]; Homo sapiens, A-431, 72 h) [nM] | IC50 [4] [nM] | IC50 ([2]; 72 hours) [nM] |
| --- | --- | --- | --- | --- | --- | --- |
| COc1cc(N2CCC(N3CCN(C)CC3)CC2)ccc1Nc1ncc(Cl)c(Nc2ccccc2P(C)(C)=O)n1 [Brigatinib, reference compound] | 320 | 771 | 103 |  |  |  |
| COc1c(Nc2ncc(Br)c(Nc3ccc4nccnc4c3P(C)(C)=O)n2)cc(-c2cnn(C)c2)c(N2CCOCC2)c1C [Compound 68, (6-((5-bromo-2-((2-methoxy-3-methyl-5-(1-methyl-1H-pyrazol-4-yl)-4-morpholinylphenyl)amino)pyrimidin-4-yl)amino)quinoxalin-5-yl)dimethylphosphine oxide] | 372 |  | 114 | 1390 |  |  |
| CN1CCN(c2ncc(Nc3ncc(Br)c(Nc4ccc5nccnc5c4P(C)(C)=O)n3)cc2-c2cnn(C)c2)CC1 [Compound 70, (6-((5-bromo-2-((5-(1-methyl-1H-pyrazol-4-yl)-6-(4-methylpiperazin-1-yl)pyridin-3-yl)amino)pyrimidin-4-yl)amino)quinoxalin-5-yl)dimethylphosphine oxide] | 348 |  | 117 | 157 |  |  |
| COc1nc(N(C)CCN(C)C)c(-c2cnn(C)c2)cc1Nc1ncc(Br)c(Nc2ccc3nccnc3c2P(C)(C)=O)n1 [compound 45] |  |  | 7.65 | 102 |  |  |
| Cn1cc(-c2cc(Nc3ncc(Br)c(Nc4ccc5nccnc5c4P(C)(C)=O)n3)cc(F)c2N2CCOCC2)cn1 [compound 46] | 11.7 |  | 6.71 | 67.2 |  |  |
| Cn1cc(-c2cc(Nc3ncc(Br)c(Nc4ccc5nccnc5c4P(C)(C)=O)n3)ccc2N2CCOCC2)cn1 [compound 48] | 6.03 |  | 3.02 | 51.1 |  |  |
| COc1ccc(-n2ccnc2)cc1Nc1ncc(Br)c(Nc2ccc3nccnc3c2P(C)(C)=O)n1 [compound 50] |  |  | 34.1 | 508 |  |  |
| CNC(=O)c1ccccc1Nc1nc(Nc2cc(-c3cnn(C)c3)c(N3CCOCC3)cc2OC)ncc1Br [compound 52] |  |  | 26.7 | 158 |  |  |
| COc1cc(N2CCOCC2)c(-c2cnn(C)c2)cc1Nc1ncc(Br)c(Nc2ccccc2S(=O)(=O)C(C)C)n1 [compound 54] |  |  | 103 | 638 |  |  |
| COc1cc(P(C)(C)=O)c(-c2cnn(C)c2)cc1Nc1ncc(Br)c(Nc2ccc3nccnc3c2P(C)(C)=O)n1 [compound 55] |  |  | 1230 | ≥ 5000 |  |  |
| COc1cc(N2CCOCC2)c(C#N)cc1Nc1ncc(Br)c(Nc2ccc3nccnc3c2P(C)(C)=O)n1 [compound 59] |  |  | 26.2 | 345 |  |  |
| COc1cc(N2CCOCC2)c(-c2cncnc2)cc1Nc1ncc(C)c(Nc2ccc3nccnc3c2P(C)(C)=O)n1 [compound 60] |  |  | 89.3 | 658 |  |  |
| COc1cc(N2CCOCC2)c(-n2cccn2)cc1Nc1ncc(Br)c(Nc2ccc3nccnc3c2P(C)(C)=O)n1 [compound 61] | 794 |  | 312 | 6580 |  |  |
| COc1cc(N2CCOCC2)c(-c2cnn(C)c2)c(F)c1Nc1ncc(Br)c(Nc2ccc3nccnc3c2P(C)(C)=O)n1 [compound 62] | 195 |  | 73.6 | 3380 |  |  |
| COc1nc(N2CCOCC2)c(-c2cnn(C)c2)cc1Nc1ncc(C)c(Nc2ccc3nccnc3c2P(C)(C)=O)n1 [compound 63] | 24.9 |  | 14.3 | 331 |  |  |
| COc1nc(N2CCN(C)CC2)c(-c2cnn(C)c2)cc1Nc1ncc(Br)c(Nc2ccc3nccnc3c2P(C)(C)=O)n1 [compound 65] | 17.3 |  | 6.68 | 72.4 |  |  |

| SMILES | GI50 [1] [nM] | IC50 ([2]; Homo sapiens, A-431, 72 hours) [nM] | GI50 [3] [nM] | IC50 ([2]; Homo sapiens, A-431, 72 h) [nM] | IC50 [4] [nM] | IC50 ([2]; 72 hours) [nM] |
| --- | --- | --- | --- | --- | --- | --- |
| COc1cc(N2CCCCC2)c(-c2cnn(C)c2)cc1Nc1ncc(Br)c(Nc2ccc3nccnc3c2P(C)(C)=O)n1 [compound 66] | 10.8 |  | 3.04 | 575 |  |  |
| COc1nc(N2CCC3(CC2)COC3)c(-c2cnn(C)c2)cc1Nc1ncc(Br)c(Nc2ccc3nccnc3c2P(C)(C)=O)n1 [compound 67] | 59.2 | 622 | 42.3 |  |  |  |
| COc1cc(N2CCOCC2)c(-n2cc(C)cn2)cc1Nc1ncc(Br)c(Nc2ccc3nccnc3c2P(C)(C)=O)n1 [compound 73] | 536 |  | 326 | 3260 |  |  |
| CN1CCC2(CC1)CCN(c1ccc(Nc3ncc(Br)c(Nc4ccc5nccnc5c4P(C)(C)=O)n3)cc1-c1cnn(C)c1)CC2 [compound 76] | 9.96 |  | 5.4 | 20.7 |  |  |
| COc1cc(N2CCOCC2)c(-c2ccnn2C)cc1Nc1ncc(Br)c(Nc2ccc3nccnc3c2P(C)(C)=O)n1 [compound 90] | 446 |  | 251 | 4390 |  |  |
| COc1cc(N2CCOCC2)c(-c2cncn2C)cc1Nc1ncc(Br)c(Nc2ccc3nccnc3c2P(C)(C)=O)n1 [compound 91] | 430 |  | 278 | 3550 |  |  |
| COc1c(Nc2ncc(Br)c(Nc3ccc4nccnc4c3P(C)(C)=O)n2)cc(-c2cnn(C)c2)c(N2CCC(N(C)C)CC2)c1F [compound 95] | 40.9 |  | 15.7 | 96.7 |  |  |
| COc1cc(N2CCC(N(C)C)CC2)c(-c2cnn(C)c2)cc1Nc1ncc(Br)c(Nc2ccc3nccnc3c2P(C)(C)=O)n1 [compound 96] | 9.39 |  | 3.52 | 44.2 |  |  |
| COc1cc(N2CCN(CCO)CC2)c(-c2cnn(C)c2)cc1Nc1ncc(Br)c(Nc2ccc3nccnc3c2P(C)(C)=O)n1 [compound 99] | 104 |  | 40.6 | 209 |  |  |
| Cc1cc(Nc2ncc(Br)c(Nc3ccc4nccnc4c3P(C)(C)=O)n2)cc(-c2cnn(C)c2)c1N1CCOCC1 [compound 100, (6-((5-bromo-2-((3-methyl-5-(1-methyl-1H-pyrazol-4-yl)-4-morpholinylphenyl)amino)pyrimidin-4-yl)amino)quinoxalin-5-yl)dimethylphosphine oxide] | 6.2 |  | 2.87 | 29.1 |  |  |
| COc1cc(N2CCN(C)C(C)(C)C2)c(-c2cnn(C)c2)cc1Nc1ncc(Br)c(Nc2ccc3nccnc3c2P(C)(C)=O)n1 [compound 108] | 24.5 |  | 12.5 | 92.8 |  |  |
| COc1cc(N2CC3(COC3)C2)c(-c2cnn(C)c2)cc1Nc1ncc(Br)c(Nc2ccc3nccnc3c2P(C)(C)=O)n1 [compound 109] | 62.8 |  | 46.3 | 547 |  |  |
| COc1cc(N2CCC(C)(N)CC2)c(-c2cnn(C)c2)cc1Nc1ncc(Br)c(Nc2ccc3nccnc3c2P(C)(C)=O)n1 [compound 113] | 176 |  | 74.5 | 189 |  |  |
| COc1cc(N2CCNCC2)c(-c2cnn(C)c2)cc1Nc1ncc(Br)c(Nc2ccc3nccnc3c2P(C)(C)=O)n1 [compound 117] | 120 |  | 41 | 157 |  |  |
| COc1cc(N2CCC(N3CCOCC3)CC2)c(-c2cnn(C)c2)cc1Nc1ncc(Br)c(Nc2ccc3nccnc3c2P(C)(C)=O)n1 [compound 129] | 2.71 |  | 0.72 |  | 0.27 | 86.2 |
| COc1cc(C2=CCN(C)CC2)c(-c2cnn(C)c2)cc1Nc1ncc(Br)c(Nc2ccc3nccnc3c2P(C)(C)=O)n1 [compound 177] | 35 |  | 25.6 | 59.3 |  |  |
